Experimental data: patent publication US12428406B2 (PMV Pharmaceuticals, Inc., priority 2019, dated 2025)

Molecular target: T1, p53 Y220C (Homo sapiens, UniProt P04637, Y220C)
T1 construct: The recombinant protein was a truncation mutant containing only amino acids 94-312 of p53; made in house; host or cells: E. coli
Experiment: In vitro DNA binding activity assay (HTRF / TR-FRET): stabilization of p53 Y220C and increase of its DNA binding activity
Assay type: biochemical
Settings: recombinant His-tagged p53 Y220C DNA binding domain (aa 94-312), biotin-labeled consensus DNA, incubated at 27° C. or 29° C. for 60 min
Description: The ability of a compound of the invention to stabilize p53 Y220C and increase the DNA binding activity of p53 Y220C was measured by a homogeneous time-resolved fluorescence (HTRF) assay. Recombinant His-tagged p53 Y220C used in the HTRF assay was expressed in the bacterium E. coli.
The binding of the recombinant His-tagged p53 Y220C protein and the biotin-labeled consensus DNA was measured using fluorescence resonance energy transfer (FRET). For the FRET assay, the binding between the p53 mutant and the DNA sequence was measured by detecting the fluorescence of the interaction between an anti-His antibody conjugated to allophycocyanin (APC) and streptavidin conjugated to europium to detect the biotin-labeled DNA.
The test compounds were prepared as 4.5 mM stock solutions in dimethyl sulfoxide (DMSO). The compounds of the disclosure were used to test the stabilization of p53 Y220C and increase in DNA binding activity of p53 Y220C. The stock solutions were then serially diluted 3-fold in DMSO, and 1.2 μL of the diluted solutions was added to each well of a 384-well polypropylene black plate.
The test and control samples were spun at 1200 rpm for 1 minute and incubated at room temperature for 15 minutes. […] The plates were spun at 1200 rpm for 1 minute and incubated at room temperature for 20 minutes. The assay signals were monitored by reading excitation at 340 nm, and emission fluorescence at 615 nm and 665 nm on a plate reader.
The percentage of activation of protein DNA binding in the presence of a compound of the invention compared to the absence of the compound was denoted by a SC150 value, which indicated the concentration of the compound required to increase the DNA binding activity by 50%. The SC150 values were calculated using either Prism™ or ActivityBase™.

T1 sequence (P04637 94-312, change not shown): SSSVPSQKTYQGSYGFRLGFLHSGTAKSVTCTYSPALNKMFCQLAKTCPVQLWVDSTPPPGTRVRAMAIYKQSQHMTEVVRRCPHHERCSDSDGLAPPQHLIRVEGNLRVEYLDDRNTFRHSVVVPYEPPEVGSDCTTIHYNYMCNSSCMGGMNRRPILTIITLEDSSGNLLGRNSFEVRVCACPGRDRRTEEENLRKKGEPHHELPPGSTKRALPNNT

Row | Compound | SC150 (concentration of the compound required to increase the DNA binding activity by 50%)
1 | COc1cc(S(N)(=O)=O)ccc1NCC#Cc1cc2c(N[C@@H]3CCN(C[C@H](COC(C)=O)OC(C)=O)C[C@@H]3F)cccc2n1CC(F)(F)F (racemic) [Compound 799A, (2R)-1-(acetyloxy)-3-[(3RS,4SR)-3-fluoro-4-[(2-{3-[(2-methoxy-4-sulfamoylphenyl)amino]prop-1-yn-1-yl}-1-(2,2,2-trifluoroethyl)-1H-indol-4-yl)amino]piperidin-1-yl]propan-2-yl acetate] | + (+ = 0 μM ≤ SC150 < 0.05 μM)
2 | COc1cc(C(=O)OCC(C)O)ccc1NCC#Cc1cc2c(N[C@H]3CCN(C)C[C@H]3F)cccc2n1CC(F)(F)F (mixture of isomers) [Compound 806A, rac-2-hydroxypropyl 4-{[3-(4-{[(3R,4S)-3-fluoro-1-methylpiperidin-4-yl]amino}-1-(2,2,2-trifluoroethyl)-1H-indol-2-yl)prop-2-yn-1-yl]amino}-3-methoxybenzoate] | + (+ = 0 μM ≤ SC150 < 0.05 μM)
3 | COc1cc(S(C)(=O)=O)ccc1NCC#Cc1cc2c(N[C@H]3CCN(CC(N)=O)C[C@H]3F)cccc2n1CC(F)(F)F (racemic) [Compound 811A, rac-2-[(3R,4S)-3-fluoro-4-[(2-{3-[(4-methanesulfonyl-2-methoxyphenyl)amino]prop-1-yn-1-yl}-1-(2,2,2-trifluoroethyl)-1H-indol-4-yl)amino]piperidin-1-yl]acetamide] | + (+ = 0 μM ≤ SC150 < 0.05 μM)
4 | COCCNC(=O)c1ccc(NCC#Cc2cc3c(N[C@H]4CCN(C)C[C@H]4F)cccc3n2CC(F)(F)F)c(OC)c1 (racemic) [Compound 814A, rac-4-{[3-(4-{[(3R,4S)-3-fluoro-1-methylpiperidin-4-yl]amino}-1-(2,2,2-trifluoroethyl)-1H-indol-2-yl)prop-2-yn-1-yl]amino}-3-methoxy-N-(2-methoxyethyl)benzamide] | + (+ = 0 μM ≤ SC150 < 0.05 μM)
5 | COc1cc(C(=O)N(C)C)ccc1NCC#Cc1cc2c(N[C@H]3CCN(C)C[C@H]3F)cccc2n1CC(F)(F)F (racemic) [Compound 815A, rac-4-{[3-(4-{[(3R,4S)-3-fluoro-1-methylpiperidin-4-yl]amino}-1-(2,2,2-trifluoroethyl)-1H-indol-2-yl)prop-2-yn-1-yl]amino}-3-methoxy-N,N-dimethylbenzamide] | + (+ = 0 μM ≤ SC150 < 0.05 μM)
6 | COCC(O)CNC(=O)c1ccc(NCC#Cc2cc3c(N[C@H]4CCN(C)C[C@H]4F)cccc3n2CC(F)(F)F)c(OC)c1 (mixture of isomers) [Compound 816A] | + (+ = 0 μM ≤ SC150 < 0.05 μM)
7 | COc1cc(S(C)(=O)=O)ccc1NCC#Cc1cc2c(N(C)[C@H]3CCN(C)C[C@H]3F)cccc2n1CC(F)(F)F (racemic) [Compound 831A, rac-N-[(3R,4S)-3-fluoro-1-methylpiperidin-4-yl]-2-{3-[(4-methanesulfonyl-2-methoxyphenyl)amino]prop-1-yn-1-yl}-N-methyl-1-(2,2,2-trifluoroethyl)-1H-indol-4-amine] | + (+ = 0 μM ≤ SC150 < 0.05 μM)

The next lines start with the values.

Row | SC150 (concentration of the compound required to increase the DNA binding activity by 50%) | Compound
8 | + (+ = 0 μM ≤ SC150 < 0.05 μM) | COc1cc(C(=O)NC(C)C)ccc1NCC#Cc1cc2c(N[C@H]3CCN(C)C[C@H]3F)cccc2n1CC(F)(F)F (racemic) [Compound 817A, rac-4-{[3-(4-{[(3R,4S)-3-fluoro-1-methylpiperidin-4-yl]amino}-1-(2,2,2-trifluoroethyl)-1H-indol-2-yl)prop-2-yn-1-yl]amino}-3-methoxy-N-(propan-2-yl)benzamide]
9 | + (+ = 0 μM ≤ SC150 < 0.05 μM) | COc1cc(C(=O)NC2CCOCC2)ccc1NCC#Cc1cc2c(N[C@H]3CCN(C)C[C@H]3F)cccc2n1CC(F)(F)F (racemic) [Compound 818A, rac-4-{[3-(4-{[(3R,4S)-3-fluoro-1-methylpiperidin-4-yl]amino}-1-(2,2,2-trifluoroethyl)-1H-indol-2-yl)prop-2-yn-1-yl]amino}-3-methoxy-N-(oxan-4-yl)benzamide]
10 | + (+ = 0 μM ≤ SC150 < 0.05 μM) | CCN1CC[C@H](Nc2cccc3c2cc(C#CCNc2ccc(S(C)(=O)=O)cc2OC)n3CC(F)(F)F)[C@H](F)C1 (racemic) [Compound 820A, rac-N-[(3R,4S)-1-ethyl-3-fluoropiperidin-4-yl]-2-{3-[(4-methanesulfonyl-2-methoxyphenyl)amino]prop-1-yn-1-yl}-1-(2,2,2-trifluoroethyl)-1H-indol-4-amine]
11 | ++ (++ = 0.05 μM ≤ SC150 < 0.1 μM) | COc1cc(C(=O)O)ccc1NCC#Cc1cc2c(N[C@H]3CCN(C)C[C@@H]3F)cccc2n1CC(F)(F)F (racemic) [Compound 833A, rac-4-{[3-(4-{[(3R,4R)-3-fluoro-1-methylpiperidin-4-yl]amino}-1-(2,2,2-trifluoroethyl)-1H-indol-2-yl)prop-2-yn-1-yl]amino}-3-methoxybenzoic acid]
12 | + (+ = 0 μM ≤ SC150 < 0.05 μM) | COc1cc(S(C)(=O)=O)ccc1NCC#Cc1cc2c(N[C@H]3CCN(C)C[C@H]3F)cc(F)cc2n1CC(F)(F)F (racemic) [Compound 836A, rac-6-fluoro-N-[(3R,4S)-3-fluoro-1-methylpiperidin-4-yl]-2-{3-[(4-methanesulfonyl-2-methoxyphenyl)amino]prop-1-yn-1-yl}-1-(2,2,2-trifluoroethyl)-1H-indol-4-amine]
13 | + (+ = 0 μM ≤ SC150 < 0.05 μM) | COc1cc(S(C)(=O)=O)ccc1NCC#Cc1cc2c(N[C@@H]3CCN(CC(C)O)C[C@@H]3F)cccc2n1CC(F)(F)F (mixture of isomers) [Compound 871A, 1-[(3S,4R)-3-fluoro-4-[(2-{3-[(4-methanesulfonyl-2-methoxyphenyl)amino]prop-1-yn-1-yl}-1-(2,2,2-trifluoroethyl)-1H-indol-4-yl)amino]piperidin-1-yl]propan-2-ol]
14 | + (+ = 0 μM ≤ SC150 < 0.05 μM) | CCCn1c(C#CCNc2ccc(S(C)(=O)=O)cc2OC)cc2c(N[C@H]3CCN(C[C@@H](O)COC)C[C@H]3F)cccc21 (racemic) [Compound 884A]
15 | + (+ = 0 μM ≤ SC150 < 0.05 μM) | COc1cc(S(C)(=O)=O)ccc1NCC#Cc1cc2c(N[C@H]3CCN(CC(=O)NCCN(Cc4ccccn4)Cc4ccccn4)C[C@H]3F)cccc2n1CC(F)(F)F (racemic) [Compound 891A, rac-N-(2-{bis[(pyridin-2-yl)methyl]amino}ethyl)-2-[(3R,4S)-3-fluoro-4-[(2-{3-[(4-methanesulfonyl-2-methoxyphenyl)amino]prop-1-yn-1-yl}-1-(2,2,2-trifluoroethyl)-1H-indol-4-yl)amino]piperidin-1-yl]acetamide]
16 | + (+ = 0 μM ≤ SC150 < 0.05 μM) | COC(=O)c1ccc(NCC#Cc2cc3c(N[C@@H]4CCN(CC(C)O)C[C@@H]4F)cccc3n2CC(F)(F)F)c(OC)c1 (mixture of isomers) [Compound 900A, methyl 4-{[3-(4-{[(3S,4R)-3-fluoro-1-(2-hydroxypropyl)piperidin-4-yl]amino}-1-(2,2,2-trifluoroethyl)-1H-indol-2-yl)prop-2-yn-1-yl]amino}-3-methoxybenzoate]
